The target of one test is T1, NE (Homo sapiens, UniProt P08246).
T1 construct: purchased Biocentrum, Krakow, Poland
T1 sequence (P08246 30-267): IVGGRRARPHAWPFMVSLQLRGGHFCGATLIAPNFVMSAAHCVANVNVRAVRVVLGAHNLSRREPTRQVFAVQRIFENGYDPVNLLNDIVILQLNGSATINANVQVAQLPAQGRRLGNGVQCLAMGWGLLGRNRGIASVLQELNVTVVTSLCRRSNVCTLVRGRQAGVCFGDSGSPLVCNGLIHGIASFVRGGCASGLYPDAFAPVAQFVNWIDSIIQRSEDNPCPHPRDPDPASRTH
The test can be described thus: Fluorogenic substrate hydrolysis kinetics with NE. The test is classed as biochemical. On the procedure:
(§1) Kinetic parameters of selected substrates were determined in 50 mM Hepes, 0.1 M NaCl, 0.1%TRITON-X100, pH 7.45 assay buffer on 96 wells Corning plates. Measurements were performed for a minimum of 20 minutes. The excitation wavelength was 355 nm, and the emission wavelength was 460 nm, with a cutoff of 455 nm. Human NE and CatG were purchased from Biocentrum, Krakow, Poland and PR3 from Athens Research Technology, Athens, Georgia, USA. Recombinant human NSP4 was expressed and purified as previously described.
(§2) In addition to NSP4, neutrophils contain three other structurally-related serine proteases NE, PR3 and CatG [1] that are also stored in azurophilic granules. To estimate the degree of eventual cross reactivity of the optimal substrate with these three serine proteases, we measured kinetic parameters for each enzyme on PK421. […] In the case of CatG we were unable to saturate the enzyme and therefore could not calculate the individual values of kcat and Km.

For test [1], the target named is T2, NSP4 (Homo sapiens, UniProt Q6UWY2).
T2 construct: made in house
T2 sequence (Q6UWY2 32-283): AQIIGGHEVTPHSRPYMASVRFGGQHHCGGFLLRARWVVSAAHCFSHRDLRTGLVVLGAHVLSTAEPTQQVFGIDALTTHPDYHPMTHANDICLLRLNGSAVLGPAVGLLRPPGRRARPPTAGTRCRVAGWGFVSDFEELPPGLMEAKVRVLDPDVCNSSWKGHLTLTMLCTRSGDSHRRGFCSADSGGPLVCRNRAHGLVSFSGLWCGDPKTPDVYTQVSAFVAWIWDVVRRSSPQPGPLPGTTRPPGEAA
Briefly: Fluorogenic substrate hydrolysis kinetics with NSP4. The test is classed as biochemical. On the procedure:
as §1
To 20μl of substrates dissolved in assay buffer at known concentration ranges (PK421 and PK431–320–1μM, PK417 and PK418–460–27μM), 80μl of NSP4 (2.9nM), preincubated for 20 minutes at 37°C in buffer, was added. Km, kcat and kcat/Km parameters/constants were calculated using GraphPad Prism and Excel software. Each experiment was repeated three times, and the results are presented as an average +/- S.D.

A further test deals with T3, PR3 (Homo sapiens, UniProt P24158).
T3 construct: purchased Athens Research Technology, Athens, Georgia, USA
T3 sequence (P24158 28-256): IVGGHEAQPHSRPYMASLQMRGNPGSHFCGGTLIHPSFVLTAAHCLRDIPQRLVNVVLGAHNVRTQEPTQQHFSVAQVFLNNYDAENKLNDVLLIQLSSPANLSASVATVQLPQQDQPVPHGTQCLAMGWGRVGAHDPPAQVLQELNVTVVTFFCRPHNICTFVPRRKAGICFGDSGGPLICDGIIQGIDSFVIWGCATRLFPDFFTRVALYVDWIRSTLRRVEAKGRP
Briefly: Fluorogenic substrate hydrolysis kinetics with PR3. The test is classed as biochemical. How it is done: as §1, §2

Test [2] addresses T2, NSP4. The test can be described thus: SDS-PAGE / streptavidin blot labeling of purified NSP4 by probe. Format: binding. Conditions: 100 nM NSP4 preincubated with inhibitor 30 min 37°C, then PK401 up to 2000 nM for 20 min. On the procedure: 100nM of NSP4 was incubated with competing inhibitor—Ac-IVPR-CMK for 30 minutes at 37°C and then treated with different concentrations of probe—PK401 (2000nM and 1000nM) for 20 minutes at 37°C. Separately, 100nM of NSP4 was incubated with five different concentrations of probe- 2000nM, 1000nM, 100nM, 10nM, and 1 nM for 20 minutes in 37°C. As a control 100nM PK401 was incubated with assay buffer.
Samples were denatured and run in 4–12% SDS PAGE following transfer to nitrocellulose membrane. The membrane was blocked with 1.5% BSA in TBST overnight at 4°C and treated with IRDye800CW Streptavidin (dilution 1:10000 with 1.5% BSA in TBST) for 45 minutes. Then enzyme was visualized using a Li-cor fluorescence imager and Odyssey Molecular Modeling Software.
SDS-page and Western Blot […]
A standard SDS broad spectrum marker (Biorad) was used (Fig. 4A, lane 1). […]
minutes in 37° C (Fig. 4, lanes 4, 5, 6, 7, 8). […] Then enzyme was visualized using a Li-cor fluorescence imager and Odyssey Molecular Modeling Software. […]
The membrane was blocked with 1.5% BSA in TBST overnight at 4° C and treated with IRDye800CW Streptavidin (dilution 1:10000 with 1,5% BSA in TBST) for 45 minutes. Then PK401 was visualized using a Li-cor fluorescence imager and Odyssey Molecular Modeling Software.

Where [3] appears, read: Table 1, NSP4 2.9 nM preincubated 20 min 37°C, 50 mM Hepes, 0.1 M NaCl, 0.1% TRITON-X100, pH 7.45, ACC fluorescence ex 355/em 460 nm, average ± S.D., minimum of 2 experiments, SD, read-out: Km.
Setting [4] is: Table 1, NSP4 2.9 nM, Hepes buffer pH 7.45, 37°C, ACC fluorescence, average ± S.D., minimum of 2 experiments, SD.
Setting [5] is: Table 1 and text, NSP4 2.9 nM, Hepes buffer pH 7.45, 37°C, ACC fluorescence, average ± S.D., minimum of 2 experiments.
[6] abbreviates: Table 2, hydrolysis by NSP4, Hepes buffer pH 7.45.

Where “and” joins values, the source holds several entries; their conditions need not be identical. Equal entries are not always repeated. Where two headings read alike, the source gives them in different places. * marks the point of attachment. ACC = NC(=O)Cc1cc(=O)oc2cc(N*)ccc12; CH2Cl = ClC*

Data on seven substances can be found in paper PMC4501687, “Design of a Selective Substrate and Activity Based Probe for Human Neutrophil Serine Protease 4” (PLoS ONE, 2015).

As usually defined, the Km is the substrate concentration at which the rate is half of its maximum. A word on the kcat: it is the number of substrate molecules converted per active site and unit of time at saturation. The kcat/Km is the turnover number divided by the Michaelis constant.

As for “Ac-Nle(OBzl)-Met(O)2-Oic-Abu-ACC [assay substrate for NE, reference compound]”, the Km at NE (Table 3, assay substrate for NE, read-out: Km of the substrate used for analysis) came out at 0.28 ± 0.08 µM.

As for “Ac-hCha-Phe(guan)-Pro-Arg-ACC [PK431, fluorogenic NSP4 substrate with unnatural amino acids]”, the Km at NSP4 [1] (setting [3]) was 53 ± 0.8 µM; at NSP4 [1] (Table 3, assay substrate for NSP4, read-out: Km of the substrate used for analysis) it was 53 ± 0.8 µM. Moreover, the catalytic constant (kcat) at NSP4 [1] (setting [4]) turned out to be 1.2 ± 0.017 s⁻¹. Besides, the kcat/Km on NSP4 [1] (setting [5]) is 23000 ± 11 M⁻¹ s⁻¹.

Take “Ac-RVPR-{ACC} (SMILES CC(=O)N[C@@H](CCCNC(=N)N)C(=O)N[C@H](C(=O)N1CCC[C@H]1C(=O)N[C@@H](CCCNC(=N)N)C(=O)Nc1ccc2c(CC(N)=O)cc(=O)oc2c1)C(C)C) [PK418, fluorogenic NSP4 substrate of natural amino acids]”: the Km at NSP4 [1] (setting [3]) was found to be 67 ± 10 µM. In addition, at NSP4 [1] (setting [4]), the kcat is listed as 0.06 ± 0.003 x 10^−3 s^-1. In addition, the kcat/Km at NSP4 [1] (setting [5]) is 960 ± 190 M⁻¹ s⁻¹.

On to “Ac-Glu(OBzl)-Lys(Ac)-hPro(OBzl)-Abu-ACC [assay substrate for PR3, reference compound]”, for which the Km at PR3 (Table 3, assay substrate for PR3, read-out: Km of the substrate used for analysis) amounted to 13.7 ± 0.67 µM.

For the substance “Ac-IVPR-{ACC} (SMILES CC[C@H](C)[C@H](NC(C)=O)C(=O)N[C@H](C(=O)N1CCC[C@H]1C(=O)N[C@@H](CCCNC(=N)N)C(=O)Nc1ccc2c(CC(N)=O)cc(=O)oc2c1)C(C)C) [PK417, fluorogenic NSP4 substrate of natural amino acids]”, on NSP4 [1] (setting [3]), the Km was determined as 96 ± 16 µM. The kcat at NSP4 [1] (setting [4]) turned out to be 0.2 ± 0.02 s⁻¹. Besides, the kcat/Km on NSP4 [1] (setting [5]) was 2100 M⁻¹ s⁻¹ and 2100 ± 300 M⁻¹ s⁻¹.

For the substance “Ac-hCha-Phe(guan)-Oic-Arg-ACC [PK421, optimal fluorogenic NSP4 substrate with unnatural amino acids]”, the kcat/Km result on NE (Table 2, hydrolysis by NE, NA = no activity detected) was “Lack of measurable activity”; on PR3 (Table 2, hydrolysis by PR3, NA = no activity detected) it was “Lack of measurable activity”; at NSP4 [1] (setting [5]), 32000 M⁻¹ s⁻¹ and 32000.0 ± 4500 M⁻¹ s⁻¹; at NSP4 [1] (setting [6]) it was 32000 ± 4500 M⁻¹ s⁻¹. The “Increase of kcat/Km relative to PK431 (Pro to Oic at P2)” value on NSP4 [1] (NSP4, PK421 versus PK431) was 39%. Also, the “Fold more efficiently cleaved by NSP4 than PK417 (kcat/Km ratio)” value on NSP4 [1] (NSP4, versus best substrate of only natural amino acids) is given as “around 15 times”. The Km on NSP4 [1] (setting [3]) was 61 ± 9.1 µM; at NSP4 [1] (Table 2, hydrolysis by NSP4, Hepes buffer pH 7.45, read-out: Km), 61 ± 9.1 µM. The kcat on NSP4 [1] (setting [4]) and on NSP4 [1] (setting [6]) was 2.0 ± 0.54 s⁻¹ each time.

With Ac-IVPR-CH2Cl [reference compound], the “Effect of NSP4 active site blocking on PK401 binding” value on NSP4 [2] is listed as “prevented binding”.
